Test results from ChEMBL document CHEMBL5465560, “Selectivity Literature for EUbOPEN Chemogenomic Library” (2024).

Assays:
[1] = target: Fibroblast growth factor receptor 4 (Homo sapiens, UniProt P22455); assay: Selectivity interaction (KinomeScan (DiscoverX)) EUB0000045b FGFR4
[2] = target: T1, Serine/threonine-protein kinase DCLK1 (Homo sapiens) (UniProt O15075); assay: Selectivity interaction (KinomeScan (DiscoverX)) EUB0000045b DCLK1
T1 sequence (whole entry): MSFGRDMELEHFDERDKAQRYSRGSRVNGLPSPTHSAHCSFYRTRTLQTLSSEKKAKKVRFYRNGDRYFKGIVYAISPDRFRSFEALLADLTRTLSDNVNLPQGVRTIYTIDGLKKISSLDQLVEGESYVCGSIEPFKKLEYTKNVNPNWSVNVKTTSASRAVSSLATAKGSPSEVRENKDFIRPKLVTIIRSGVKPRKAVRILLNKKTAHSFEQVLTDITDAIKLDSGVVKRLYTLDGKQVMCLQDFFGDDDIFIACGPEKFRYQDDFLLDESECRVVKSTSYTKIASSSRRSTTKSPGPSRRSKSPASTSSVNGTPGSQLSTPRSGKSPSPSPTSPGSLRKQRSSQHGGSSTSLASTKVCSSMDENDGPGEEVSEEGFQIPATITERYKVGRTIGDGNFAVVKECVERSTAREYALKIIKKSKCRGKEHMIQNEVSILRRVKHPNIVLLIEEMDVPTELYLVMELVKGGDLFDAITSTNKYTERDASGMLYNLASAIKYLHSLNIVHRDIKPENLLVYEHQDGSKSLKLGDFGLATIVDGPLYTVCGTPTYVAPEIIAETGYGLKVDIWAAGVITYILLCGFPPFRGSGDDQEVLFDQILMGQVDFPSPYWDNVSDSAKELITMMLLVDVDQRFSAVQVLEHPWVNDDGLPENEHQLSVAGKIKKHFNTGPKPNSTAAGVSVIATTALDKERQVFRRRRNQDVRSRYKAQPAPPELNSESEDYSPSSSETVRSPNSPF

[3] = target: T2, Serine/threonine-protein kinase 17A (Homo sapiens) (UniProt Q9UEE5); settings: at 10 µM
T2 sequence (whole entry): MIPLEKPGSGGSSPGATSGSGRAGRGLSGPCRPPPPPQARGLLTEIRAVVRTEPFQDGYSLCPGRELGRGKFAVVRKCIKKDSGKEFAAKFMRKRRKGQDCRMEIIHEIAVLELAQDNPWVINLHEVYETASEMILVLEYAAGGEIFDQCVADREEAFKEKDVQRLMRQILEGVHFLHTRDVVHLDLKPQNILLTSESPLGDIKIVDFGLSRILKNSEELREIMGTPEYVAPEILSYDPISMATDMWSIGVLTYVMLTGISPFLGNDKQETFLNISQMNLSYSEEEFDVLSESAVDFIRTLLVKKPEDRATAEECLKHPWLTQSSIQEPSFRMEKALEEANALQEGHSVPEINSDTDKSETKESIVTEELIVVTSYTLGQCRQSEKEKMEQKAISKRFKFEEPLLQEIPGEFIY

[4] = target: T3, Dual specificity mitogen-activated protein kinase kinase 6 (Homo sapiens) (UniProt P52564); assay: Selectivity interaction (ActivX KiNativ screen (kinase selectivity in THP-1 cell lysates)) EUB0000639a MAP2K6; format: subcellular; settings: lysate
T3 sequence (whole entry): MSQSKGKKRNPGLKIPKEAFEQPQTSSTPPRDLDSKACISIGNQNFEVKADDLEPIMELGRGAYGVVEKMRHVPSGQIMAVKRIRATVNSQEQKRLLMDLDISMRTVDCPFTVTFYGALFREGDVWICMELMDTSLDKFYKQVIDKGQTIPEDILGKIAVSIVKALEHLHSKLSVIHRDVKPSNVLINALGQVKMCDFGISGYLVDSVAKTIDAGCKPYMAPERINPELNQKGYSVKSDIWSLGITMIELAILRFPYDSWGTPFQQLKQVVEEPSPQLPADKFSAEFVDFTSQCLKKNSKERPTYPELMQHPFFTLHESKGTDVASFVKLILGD

[5] = target: Tyrosine-protein kinase Fyn (Homo sapiens) (UniProt P06241); assay: Selectivity interaction (ActivX KiNativ screen (kinase selectivity in THP-1 cell lysates)) EUB0000639a FYN; format: subcellular; settings: lysate, at 5 µM
[6] = target: Serine/threonine-protein kinase 33 (Homo sapiens) (UniProt Q9BYT3); assay: Selectivity interaction (KinomeScan (DiscoverX)) EUB0000229b STK33; settings: at 10 µM
[7] = target: Tyrosine-protein kinase CSK (Homo sapiens) (UniProt P41240); assay: Selectivity interaction (KinomeScan (DiscoverX)) EUB0000229b CSK; settings: at 10 µM
[8] = target: Casein kinase I isoform delta (Homo sapiens, UniProt P48730); assay: Selectivity interaction (KinomeScan (DiscoverX)) EUB0000229b CSNK1D; settings: at 10 µM
[9] = target: Macrophage colony-stimulating factor 1 receptor (Homo sapiens) (UniProt P07333); assay: Selectivity interaction (KinomeScan (DiscoverX)) EUB0000229b CSF1R; settings: at 10 µM
[10] = target: Serine/threonine-protein kinase N2 (Homo sapiens, UniProt Q16513); assay: Selectivity interaction (KinomeScan (DiscoverX)) EUB0001049a PKN2; settings: at 1 µM
[11] = target: T4, Testis-specific serine/threonine-protein kinase 1 (Homo sapiens) (UniProt Q9BXA7); assay: Selectivity interaction (KinomeScan (DiscoverX)) EUB0000666a TSSK1A; settings: at 10 µM
T4 sequence (whole entry): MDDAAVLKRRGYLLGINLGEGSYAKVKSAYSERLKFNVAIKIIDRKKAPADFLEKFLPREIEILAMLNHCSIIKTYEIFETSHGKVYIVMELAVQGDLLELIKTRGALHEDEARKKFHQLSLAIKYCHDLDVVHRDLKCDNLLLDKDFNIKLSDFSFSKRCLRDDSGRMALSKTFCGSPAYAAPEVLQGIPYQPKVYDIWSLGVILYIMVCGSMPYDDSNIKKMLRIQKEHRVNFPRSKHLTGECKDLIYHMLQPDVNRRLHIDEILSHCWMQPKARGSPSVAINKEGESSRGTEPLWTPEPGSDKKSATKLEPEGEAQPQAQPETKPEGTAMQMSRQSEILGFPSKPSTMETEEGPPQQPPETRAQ

Chain of Fibroblast growth factor receptor 4 (P22455 22-802 limits assumed): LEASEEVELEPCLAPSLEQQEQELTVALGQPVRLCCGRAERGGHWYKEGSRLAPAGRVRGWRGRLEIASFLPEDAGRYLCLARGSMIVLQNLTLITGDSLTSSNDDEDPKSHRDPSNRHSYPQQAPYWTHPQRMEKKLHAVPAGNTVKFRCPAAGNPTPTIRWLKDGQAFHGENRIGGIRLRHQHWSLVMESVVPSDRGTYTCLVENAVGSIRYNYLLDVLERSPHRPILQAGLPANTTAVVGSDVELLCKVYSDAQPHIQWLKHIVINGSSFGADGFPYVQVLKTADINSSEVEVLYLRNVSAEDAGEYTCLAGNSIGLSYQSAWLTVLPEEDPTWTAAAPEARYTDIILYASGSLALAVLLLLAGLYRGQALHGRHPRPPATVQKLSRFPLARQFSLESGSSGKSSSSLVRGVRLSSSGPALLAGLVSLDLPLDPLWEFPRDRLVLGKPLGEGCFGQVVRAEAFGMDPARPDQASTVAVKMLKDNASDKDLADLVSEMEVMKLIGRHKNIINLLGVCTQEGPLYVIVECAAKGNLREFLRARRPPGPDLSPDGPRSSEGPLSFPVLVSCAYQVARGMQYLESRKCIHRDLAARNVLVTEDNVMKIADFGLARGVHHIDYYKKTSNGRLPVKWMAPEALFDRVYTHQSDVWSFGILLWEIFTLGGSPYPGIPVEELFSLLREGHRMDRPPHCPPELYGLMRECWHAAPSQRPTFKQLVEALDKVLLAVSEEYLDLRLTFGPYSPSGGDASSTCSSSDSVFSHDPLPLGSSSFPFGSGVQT
Chain of Tyrosine-protein kinase Fyn (Homo sapiens) (P06241 2-537 limits assumed): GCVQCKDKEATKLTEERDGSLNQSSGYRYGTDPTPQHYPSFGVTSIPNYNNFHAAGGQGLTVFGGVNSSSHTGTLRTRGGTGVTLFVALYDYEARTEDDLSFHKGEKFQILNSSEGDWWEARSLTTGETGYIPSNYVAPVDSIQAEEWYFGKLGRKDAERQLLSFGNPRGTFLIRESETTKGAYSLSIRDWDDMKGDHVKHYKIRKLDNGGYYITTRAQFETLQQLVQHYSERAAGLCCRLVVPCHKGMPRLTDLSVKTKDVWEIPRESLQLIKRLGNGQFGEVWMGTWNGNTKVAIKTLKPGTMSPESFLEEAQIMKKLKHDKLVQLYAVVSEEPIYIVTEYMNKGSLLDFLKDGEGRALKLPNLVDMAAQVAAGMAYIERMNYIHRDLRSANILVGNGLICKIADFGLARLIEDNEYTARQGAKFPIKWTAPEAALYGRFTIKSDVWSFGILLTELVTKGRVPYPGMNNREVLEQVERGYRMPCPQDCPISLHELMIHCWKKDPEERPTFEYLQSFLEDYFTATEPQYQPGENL
Chain of Casein kinase I isoform delta (P48730 whole entry, looked up, canonical isoform): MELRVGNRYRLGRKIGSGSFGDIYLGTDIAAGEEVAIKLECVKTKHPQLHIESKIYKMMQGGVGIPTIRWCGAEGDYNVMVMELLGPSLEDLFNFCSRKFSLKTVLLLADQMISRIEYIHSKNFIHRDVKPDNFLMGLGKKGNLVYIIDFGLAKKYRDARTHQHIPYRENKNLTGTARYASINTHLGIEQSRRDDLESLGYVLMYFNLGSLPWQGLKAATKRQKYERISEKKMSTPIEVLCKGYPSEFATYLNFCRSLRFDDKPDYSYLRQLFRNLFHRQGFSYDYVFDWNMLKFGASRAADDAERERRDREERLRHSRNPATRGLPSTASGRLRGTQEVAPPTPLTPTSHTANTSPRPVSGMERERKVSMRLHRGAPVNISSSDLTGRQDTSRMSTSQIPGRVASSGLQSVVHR
Chain of Serine/threonine-protein kinase N2 (Q16513 whole entry, looked up): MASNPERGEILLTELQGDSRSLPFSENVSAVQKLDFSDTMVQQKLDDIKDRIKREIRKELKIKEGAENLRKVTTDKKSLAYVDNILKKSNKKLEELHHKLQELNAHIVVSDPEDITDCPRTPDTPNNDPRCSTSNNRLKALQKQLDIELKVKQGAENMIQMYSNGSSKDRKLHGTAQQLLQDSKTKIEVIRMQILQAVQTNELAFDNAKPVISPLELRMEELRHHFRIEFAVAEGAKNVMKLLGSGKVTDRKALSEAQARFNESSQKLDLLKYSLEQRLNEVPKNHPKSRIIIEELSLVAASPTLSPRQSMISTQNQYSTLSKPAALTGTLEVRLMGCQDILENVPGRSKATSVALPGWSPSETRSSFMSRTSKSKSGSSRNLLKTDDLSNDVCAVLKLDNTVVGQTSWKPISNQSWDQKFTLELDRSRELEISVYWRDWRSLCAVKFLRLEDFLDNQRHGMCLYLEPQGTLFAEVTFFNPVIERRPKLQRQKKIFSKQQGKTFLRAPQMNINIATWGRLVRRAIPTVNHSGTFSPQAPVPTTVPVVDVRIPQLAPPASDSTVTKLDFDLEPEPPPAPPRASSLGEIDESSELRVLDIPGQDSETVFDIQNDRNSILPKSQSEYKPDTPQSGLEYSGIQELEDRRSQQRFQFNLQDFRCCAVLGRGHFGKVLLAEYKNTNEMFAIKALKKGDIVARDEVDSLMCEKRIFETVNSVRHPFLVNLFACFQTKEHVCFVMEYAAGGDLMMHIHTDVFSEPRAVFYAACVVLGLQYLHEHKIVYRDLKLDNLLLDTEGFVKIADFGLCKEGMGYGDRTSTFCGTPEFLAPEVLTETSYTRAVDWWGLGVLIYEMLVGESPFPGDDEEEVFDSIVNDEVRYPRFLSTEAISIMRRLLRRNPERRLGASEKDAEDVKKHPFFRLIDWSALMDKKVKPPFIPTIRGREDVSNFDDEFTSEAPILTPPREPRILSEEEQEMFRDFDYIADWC
Chain of Tyrosine-protein kinase CSK (Homo sapiens) (P41240 2-450 limits assumed): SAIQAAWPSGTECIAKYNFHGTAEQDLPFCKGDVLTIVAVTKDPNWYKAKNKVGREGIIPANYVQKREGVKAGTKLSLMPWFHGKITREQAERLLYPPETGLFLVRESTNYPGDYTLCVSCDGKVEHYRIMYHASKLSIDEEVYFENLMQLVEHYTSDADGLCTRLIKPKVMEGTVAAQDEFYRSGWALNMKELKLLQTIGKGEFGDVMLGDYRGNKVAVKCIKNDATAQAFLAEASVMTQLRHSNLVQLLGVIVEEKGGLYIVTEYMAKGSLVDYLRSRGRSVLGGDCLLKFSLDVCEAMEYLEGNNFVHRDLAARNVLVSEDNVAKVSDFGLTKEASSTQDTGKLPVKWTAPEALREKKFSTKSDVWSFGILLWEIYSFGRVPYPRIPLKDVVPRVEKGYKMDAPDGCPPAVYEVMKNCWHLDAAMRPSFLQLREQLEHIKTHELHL
Chain of Serine/threonine-protein kinase 33 (Homo sapiens) (Q9BYT3 whole entry, looked up): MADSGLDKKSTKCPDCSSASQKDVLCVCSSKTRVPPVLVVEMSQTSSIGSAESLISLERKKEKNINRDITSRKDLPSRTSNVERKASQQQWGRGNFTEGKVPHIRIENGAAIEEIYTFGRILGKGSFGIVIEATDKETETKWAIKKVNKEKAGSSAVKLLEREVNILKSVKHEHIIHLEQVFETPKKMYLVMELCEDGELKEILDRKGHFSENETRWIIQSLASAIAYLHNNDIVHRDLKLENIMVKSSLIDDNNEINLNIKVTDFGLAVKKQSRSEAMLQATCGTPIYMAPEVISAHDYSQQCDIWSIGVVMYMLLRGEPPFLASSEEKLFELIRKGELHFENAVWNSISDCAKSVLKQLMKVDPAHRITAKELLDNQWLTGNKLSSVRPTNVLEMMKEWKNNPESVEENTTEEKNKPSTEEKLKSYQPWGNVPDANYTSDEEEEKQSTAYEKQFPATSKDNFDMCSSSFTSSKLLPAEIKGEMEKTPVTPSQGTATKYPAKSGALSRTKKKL
Chain of Macrophage colony-stimulating factor 1 receptor (Homo sapiens) (P07333 whole entry): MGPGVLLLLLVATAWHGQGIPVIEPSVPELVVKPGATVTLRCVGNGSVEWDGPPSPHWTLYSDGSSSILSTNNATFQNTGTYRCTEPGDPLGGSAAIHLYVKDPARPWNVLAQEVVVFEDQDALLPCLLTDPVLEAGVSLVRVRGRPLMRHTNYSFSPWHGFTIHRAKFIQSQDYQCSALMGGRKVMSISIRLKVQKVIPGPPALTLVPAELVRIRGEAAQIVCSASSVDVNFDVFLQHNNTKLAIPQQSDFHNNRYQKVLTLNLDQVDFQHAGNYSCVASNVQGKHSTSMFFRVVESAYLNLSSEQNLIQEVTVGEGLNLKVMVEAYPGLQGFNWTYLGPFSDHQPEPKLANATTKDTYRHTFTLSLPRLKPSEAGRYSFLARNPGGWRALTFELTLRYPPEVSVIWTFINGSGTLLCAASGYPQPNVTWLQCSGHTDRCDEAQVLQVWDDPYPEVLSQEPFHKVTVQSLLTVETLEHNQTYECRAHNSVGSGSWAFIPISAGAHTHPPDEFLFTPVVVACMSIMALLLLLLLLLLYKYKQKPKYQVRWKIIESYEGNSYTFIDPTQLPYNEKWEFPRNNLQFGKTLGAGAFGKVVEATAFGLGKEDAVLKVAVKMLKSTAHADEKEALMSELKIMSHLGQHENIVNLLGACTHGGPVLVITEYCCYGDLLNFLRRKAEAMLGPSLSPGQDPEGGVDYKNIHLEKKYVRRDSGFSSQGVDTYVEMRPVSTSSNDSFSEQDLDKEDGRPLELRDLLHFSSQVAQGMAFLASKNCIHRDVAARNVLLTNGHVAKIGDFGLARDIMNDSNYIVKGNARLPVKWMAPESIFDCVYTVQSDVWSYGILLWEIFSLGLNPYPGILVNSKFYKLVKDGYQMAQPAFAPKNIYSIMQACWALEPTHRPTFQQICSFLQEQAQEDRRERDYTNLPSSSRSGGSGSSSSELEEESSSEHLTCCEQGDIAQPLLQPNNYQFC

SMILES: C=CC(=O)Nc1cc(-n2c(=O)ccc3cnc4ccc(-c5ccc(NS(C)(=O)=O)cc5)cc4c32)ccc1C
- % of control ([1]; at 1 µM): 100%
- % of control ([1]; at 10 µM): 84%
- % of control ([2]; at 1 µM): 100%
- % of control ([2]; at 10 µM): 84%

SMILES: Cc1cc([C@@H](C)Nc2ccccc2C(=O)O)c2nc(N3CCOCC3)cc(=O)n2c1 [AZD-6482]
- % of control [3]: 98%

SMILES: CC[C@@H]1[C@H](F)C(=O)N[C@@H]1COc1nccc2cc(C(N)=O)c(OC)cc12 [ZIMLOVISERTIB]
- % of inhibition ([4]; at 0.01 µM): 10.3%
- % of inhibition ([4]; at 0.04 µM): -4.9%
- % of inhibition ([4]; at 0.2 µM): -20.6%
- % of inhibition ([4]; at 1 µM): 17.5%
- % of inhibition ([4]; at 5 µM): 62.3%
- % of inhibition [5]: -13.3%

SMILES: COc1cc(N(C)c2ccnc3ccc(C(F)(F)F)cc23)cc(OC)c1OC
- % binding [6]: 92%
- % binding [7]: 91%
- % binding [8]: 69%
- % binding [9]: 91%

SMILES: COc1cc(Nc2nc(C)cc(-c3cnn4nc(OC)ccc34)n2)cc(C(F)(F)F)c1
- % of control [10]: 90%

SMILES: O=C(NOC[C@H](O)CO)c1ccc(F)c(F)c1Nc1ccc(I)cc1F
- % of control [11]: 100%
